The source of these data is US8138179B2, “Spiro-imidazo compounds” (Novartis AG, priority 2006, dated 2012).

Structures are written as SMILES.

One assay concerns plasma aldosterone. The assay is described as follows: In vivo suppression of plasma aldosterone levels in ACTH-stimulated rats. Conditions: 4 mg/kg p.o.; plasma level 2 h after administration relative to 1 h prior to administration. Also on record: species or system Wistar rats. As to the method:
(§1) The aldosterone- and corticosterone-suppressing activity of herein described compounds may be assessed with the following in vivo protocol.
(§2) Adult male Wistar rats weighing between 250 and 350 grams are kept under the usual 12 hour light and 12 hour dark conditions at a temperature of 23° C.±2° C. On the first day of the experiment, the animals receive a subcutaneous injection of a depot ACTH product in a dose of 1.0 mg/kg weight (SYNACTHEN-Depot, Novartis, Basel, CH) 16 hours prior to the administration of a test compound. […] An alternative method to stimulate aldosterone secretion consists in subjecting rats to a low salt diet for 48 hours and applying the diuretic furosemide at 10 mg/kg by subcutaneous or intraperitoneal administration 16 hours, respectively 2 hours prior to the start of the experiment. […] The aldosterone and corticosterone concentrations of the plasma samples can be determined with a radioimmunoassay as described above for the in vitro test systems.
(§3) The selective suppression of plasma steroid levels as for instance aldosterone in comparison to corticosterone may serve as a measure for in vivo bioavailability and pharmacodynamic enzyme inhibitory activity of the herein described compounds. The evaluation of the data may occur relative to the application of vehicle or quantitatively by determination of the area under the curve (AUC). […]

The subject of a further assay is plasma corticosterone. The assay is described as follows: In vivo suppression of plasma corticosterone levels in ACTH-stimulated rats. More on the design: species or system Wistar rats. Conditions: 4 mg/kg p.o.; plasma level 2 h after administration relative to 1 h prior to administration. Here is the method:
as §1, §2, §3

Turning to `N#Cc1ccc2c(c1)C1(CCC2)OCCn2cncc21` (centres unmarked) [Example 10, spiro-[(5,6-Dihydro-8H-imidazo[5,1-c][1,4]oxazine)-8,8′-(5′,6′,7′,8′-tetrahydronaphthalene-2′-carbonitrile)]], in the assay on plasma aldosterone, the “Aldosterone levels (% change at 2 h)” value is −81.7%. Also, the “Corticosterone levels (% change at 2 h)” value with plasma corticosterone is given as −14.5%.
